{
  "source": "patent US10597388B2",
  "about": "“Pyridazinone herbicides” (FMC CORPORATION, priority 2014, dated 2020)",
  "experiment_in_all_cases": "Test F mixtures with commercial herbicides, Post- or Pre-emergence",
  "format_in_all_cases": "in vivo",
  "key": {"[1]": {"test_system": "AMARE, redroot pigweed (Amaranthus retroflexus)", "procedure": "(§1) This test evaluated the effect of mixtures of Compound 1 or Compound 2 with various commercial herbicides on multiple plant species. Seeds of multiple plant species selected were planted into Sandy Loam soil and treated either Post-emergence or Pre-emergence with test chemicals formulated in a non-phytotoxic solvent mixture. Plants were grown in a greenhouse using supplemental lighting to maintain a photoperiod of approximately 16 h; daytime and nighttime temperatures were approximately 24-30 and 19-21° C., respectively. Balanced fertilizer was applied through the watering system. Treated plants and controls were maintained in a greenhouse for 20 d, after which time all species were compared to controls and visually evaluated. Plant response ratings summarized in Tables F1 through F4 and are based on a scale of 0 to 100 where 0 is no effect and 100 is complete control. A dash (-) response means no test result. Application rates (i.e. “Rate”) are expressed in grams of active ingredient per hectare (g a.i./ha). In the following tables KCHSC is kochia (Kochia scoparia), LOLMU in Italian Ryegrass (Lolium multiflorum), AMBEL is common ragweed (Ambrosia elatior), ECHCG is barnyardgrass (Echinochloa crus-galli), SETVI is giant foxtail (Setaria faberii), AMARE is redroot pigweed (Amaranthus retroflexus), ALOMY is blackgrass (Alopecurus myosuroides) and GALAP is galium (Galium aparine). “Obsd.” is observed effect. “Exp.” is expected effect calculated from Colby's Equation.\n(§2) Colby's Equation was used to determine the herbicidal effects expected from the mixtures. Colby's Equation (Colby, S. R. “Calculating Synergistic and Antagonistic Responses of Herbicide Combinations,” Weeds, 15(1), pp 20-22 (1967)) calculates the expected additive effect of herbicidal mixtures, and for two active ingredients is of the form: Pa+b=Pa+Pb−(PaPb/100)\n(§3) wherein Pa+b is the percentage effect of the mixture expected from additive contribution of the individual components:\n(§4) Pa is the observed percentage effect of the first active ingredient at the same use rate as in the mixture, and\n(§5) Pb is the observed percentage effect of the second active ingredient at the same use rate as in the mixture."}, "[2]": {"test_system": "ECHCG, barnyardgrass (Echinochloa crus-galli)", "procedure": "as §1, §2, §3, §4, §5"}, "[3]": {"test_system": "SETVI, giant foxtail (Setaria faberii)", "procedure": "as §1, §2, §3, §4, §5"}, "[4]": {"test_system": "ALOMY, blackgrass (Alopecurus myosuroides)", "conditions": "Post-emergence, scale 0-100", "procedure": "as §1, §2, §3, §4, §5"}, "[5]": {"test_system": "AMBEL, common ragweed (Ambrosia elatior)", "procedure": "as §1, §2, §3, §4, §5"}, "[6]": {"test_system": "LOLMU, Italian Ryegrass (Lolium multiflorum)", "procedure": "as §1, §2, §3, §4, §5"}, "[7]": {"test_system": "GALAP, galium (Galium aparine)", "conditions": "Post-emergence, scale 0-100", "procedure": "as §1, §2, §3, §4, §5"}, "[8]": {"test_system": "KCHSC, kochia (Kochia scoparia)", "procedure": "as §1, §2, §3, §4, §5"}, "[9]": {"conditions": "Pre-emergence, Rate 62 g a.i./ha, scale 0-100"}, "[10]": {"conditions": "Table F3, Post-emergence, Rate 62 g a.i./ha, scale 0-100"}, "[11]": {"conditions": "Post-emergence, Rate 4 g a.i./ha, scale 0-100"}, "[12]": {"conditions": "Post-emergence, Rate 16 g a.i./ha, scale 0-100"}, "[13]": {"conditions": "Pre-emergence, Rate 4 g a.i./ha, applied alone, 20 d, scale 0 to 100"}, "[14]": {"conditions": "Pre-emergence, Rate 16 g a.i./ha, applied alone, 20 d, scale 0 to 100"}},
  "data": [
    {"smiles": "CCNc1nc(Cl)nc(NC(C)C)n1", "note": "[atrazine]", "values": [
      {"measurement": "AMARE Obsd.", "setting": "[1]; [9]", "value": 85},
      {"measurement": "AMARE Obsd.", "setting": "[1]; [10]", "value": 75},
      {"measurement": "ECHCG Obsd.", "setting": "[2]; [9]", "value": 0},
      {"measurement": "ECHCG Obsd.", "setting": "[2]; [10]", "value": 20},
      {"measurement": "SETVI Obsd.", "setting": "[3]; [9]", "value": 5},
      {"measurement": "SETVI Obsd.", "setting": "[3]; [10]", "value": 5},
      {"measurement": "ALOMY Obsd.", "setting": "[4]; Table F3, Rate 62 g a.i./ha", "value": 60},
      {"measurement": "AMBEL Obsd.", "setting": "[5]; [9]", "value": 10},
      {"measurement": "AMBEL Obsd.", "setting": "[5]; [10]", "value": 10},
      {"measurement": "LOLMU Obsd.", "setting": "[6]; [9]", "value": 100},
      {"measurement": "LOLMU Obsd.", "setting": "[6]; [10]", "value": 15},
      {"measurement": "GALAP Obsd.", "setting": "[7]; Table F3, Rate 62 g a.i./ha", "value": 50},
      {"measurement": "KCHSC Obsd.", "setting": "[8]; [9]", "value": 100},
      {"measurement": "KCHSC Obsd.", "setting": "[8]; [10]", "value": 100}
    ]},
    {"smiles": "CS(=O)(=O)c1ccc(C(=O)C2C(=O)CCCC2=O)c([N+](=O)[O-])c1", "note": "[mesotrione]", "values": [
      {"measurement": "AMARE Obsd.", "setting": "[1]; [11]", "value": 0.0},
      {"measurement": "AMARE Obsd.", "setting": "[1]; [12]", "value": 30.0},
      {"measurement": "AMARE Obsd.", "setting": "[1]; [13]", "value": 0},
      {"measurement": "AMARE Obsd.", "setting": "[1]; [14]", "value": 20},
      {"measurement": "ECHCG Obsd.", "setting": "[2]; [11]", "value": 0.0},
      {"measurement": "ECHCG Obsd.", "setting": "[2]; [12]", "value": 20.0},
      {"measurement": "ECHCG Obsd.", "setting": "[2]; [13]", "value": 0},
      {"measurement": "ECHCG Obsd.", "setting": "[2]; [14]", "value": 0},
      {"measurement": "SETVI Obsd.", "setting": "[3]; [11]", "value": 0.0},
      {"measurement": "SETVI Obsd.", "setting": "[3]; [12]", "value": 0.0},
      {"measurement": "SETVI Obsd.", "setting": "[3]; [13]", "value": 0},
      {"measurement": "SETVI Obsd.", "setting": "[3]; [14]", "value": 0},
      {"measurement": "ALOMY Obsd.", "setting": "[4]; Rate 4 g a.i./ha", "value": 0.0},
      {"measurement": "ALOMY Obsd.", "setting": "[4]; Rate 16 g a.i./ha", "value": 0.0},
      {"measurement": "AMBEL Obsd.", "setting": "[5]; [11]", "value": 0.0},
      {"measurement": "AMBEL Obsd.", "setting": "[5]; [12]", "value": 75.0},
      {"measurement": "AMBEL Obsd.", "setting": "[5]; [13]", "value": 0},
      {"measurement": "AMBEL Obsd.", "setting": "[5]; [14]", "value": 30},
      {"measurement": "LOLMU Obsd.", "setting": "[6]; [11]", "value": 0.0},
      {"measurement": "LOLMU Obsd.", "setting": "[6]; [12]", "value": 0.0},
      {"measurement": "LOLMU Obsd.", "setting": "[6]; [13]", "value": 0},
      {"measurement": "LOLMU Obsd.", "setting": "[6]; [14]", "value": 0},
      {"measurement": "GALAP Obsd.", "setting": "[7]; Rate 4 g a.i./ha", "value": 0.0},
      {"measurement": "GALAP Obsd.", "setting": "[7]; Rate 16 g a.i./ha", "value": 35.0},
      {"measurement": "KCHSC Obsd.", "setting": "[8]; [11]", "value": 0.0},
      {"measurement": "KCHSC Obsd.", "setting": "[8]; [12]", "value": 90.0},
      {"measurement": "KCHSC Obsd.", "setting": "[8]; [13]", "value": 0},
      {"measurement": "KCHSC Obsd.", "setting": "[8]; [14]", "value": 50}
    ]}
  ]
}
